Key:
[1] = target: T1, hSK3 channels (Homo sapiens, UniProt Q9UGI6); experiment: whole-cell patch-clamp recording of ionic current through SK channels (subtype 3) in HEK293 cells expressing hSK3; assay type: cell-based
T1 construct: expressed in transfected cells; host or cells: HEK293
Experimental: The ionic current through small-conductance Ca^2+-activated K^+ channels (SK channels, subtype 3) is recorded using HEK293 tissue culture cells expressing hSK3 channels in a whole-cell configuration of the patch-clamp technique as described in e.g. WO 2006/100212.
For activators a SC100 value may be estimated. The SC100 value is defined as the Stimulating Concentration required for increasing the baseline current by 100%. The SC100 value determined for Compound A1 of the invention was well below 0.1 μM, which is an indication of its strong SK3 activating properties.

## Clc1ccc(Nc2nc(-c3nccc4ccccc34)nc3ccccc23)cc1 [Compound B10, (4-Chloro-Phenyl)-(2-Isoquinolin-1-yl-Quinazolin-4-yl)-Amine]
other
  melting point: 279 to 280.5 °C

## Cc1cccc(-c2nc(Nc3ccc(Cl)cc3)c3ccccc3n2)n1 [Compound A1, (4-Chloro-Phenyl)-[2-(6-Methyl-Pyridin-2-yl)-Quinazolin-4-yl]-Amine]
other
  melting point: 256.1 to 259.1 °C
[1]
  SC100 value (Stimulating Concentration required for increasing the baseline current by 100%): below 0.1 μM

## COc1cccc(-c2nc(Nc3ccc(Cl)cc3)c3ccccc3n2)n1 [Compound A4, (4-Chloro-Phenyl)-[2-(6-Methoxy-Pyridin-2-yl)-Quinazolin-4-yl]-Amine]
other
  melting point: 156.8 to 160 °C

## Cc1cccc(-c2nc(NC3CCCCC3)c3ccccc3n2)n1 [Compound B2, Cyclohexyl-[2-(6-Methyl-Pyridin-2-yl)-Quinazolin-4-yl]-Amine]
other
  melting point: 253.1 to 254.9 °C

## Oc1cccc(-c2nc(Nc3ccc(Cl)cc3)c3ccccc3n2)n1 [Compound A5, 6-[4-(4-Chloro-Phenylamino)-Quinazolin-2-yl]-Pyridin-2-ol]
other
  melting point: > 350 °C

## c1ccc2c(-c3nc(NC4CCCCC4)c4ccccc4n3)nccc2c1 [Compound B9, Cyclohexyl-(2-Isoquinolin-1-yl-Quinazolin-4-yl)-Amine]
other
  melting point: 274.8 to 276.9 °C

## Clc1ccc(Nc2nc(-c3cccc(Cl)n3)nc3ccccc23)cc1 [Compound B5, (4-Chloro-Phenyl)-[2-(6-Chloro-Pyridin-2-yl)-Quinazolin-4-yl]-Amine]
other
  melting point: 211.9 to 213.2 °C

## Cc1cccc(-c2nc(NCc3ccc(Cl)cc3)c3ccccc3n2)n1 [Compound B3, (4-Chloro-Benzyl)-[2-(6-Methyl-Pyridin-2-yl)-Quinazolin-4-yl]-Amine]
other
  melting point: 209.9 to 212.2 °C

## Clc1ccc(CNc2nc(-c3nccc4ccccc34)nc3ccccc23)cc1 [Compound B11, (4-Chloro-Benzyl)-(2-Isoquinolin-1-yl-quinazolin-4-yl)-Amine]
other
  melting point: 221.4 to 224.5 °C

## O=C(c1ccccc1)c1cccnc1-c1nc(NC2CCCCC2)c2ccccc2n1 [Compound B1, [2-(4-Cyclohexylamino-Quinazolin-2-yl)-Pyridin-3-yl]-Phenyl-Methanone]
other
  melting point: 204 to 208 °C

## Clc1ccc(CNc2nc(-c3cccc(Cl)n3)nc3ccccc23)cc1 [Compound B6, (4-Chloro-Benzyl)-[2-(6-chloro-Pyridin-2-yl)-Quinazolin-4-yl]-Amine]
other
  melting point: 187.4 to 189.7 °C

## Clc1ccc(Nc2nc(-c3cccc(Br)n3)nc3ccccc23)cc1 [Compound A3, [2-(6-Bromo-Pyridin-2-yl)-Quinazolin-4-yl]-(4-Chloro-Phenyl)-Amine]
other
  melting point: 242.4 to 247.9 °C

## Clc1cccc(-c2nc(NC3CCCCC3)c3ccccc3n2)n1 [Compound B4, [2-(6-Chloro-Pyridin-2-yl)-Quinazolin-4-yl]-Cyclohexyl-Amine]
other
  melting point: 218.4 to 220.9 °C

## Fc1cccc(-c2nc(Nc3ccc(Cl)cc3)c3ccccc3n2)n1 [Compound A2, (4-Chloro-Phenyl)-[2-(6-Fluoro-Pyridin-2-yl)-Quinazolin-4-yl]-Amine]
other
  melting point: 118.3 to 121.4 °C
